Measurements as given in article PMC7115536 (European Journal of Medicinal Chemistry, 2011).

Key:
HEL cell cultures = conditions: human
[1] = cited from earlier work
[2] = Stability studies at 37 °C in complete culture medium and CEM-SS cell extracts; assay type: in vitro ADME; conditions: for t1/2 cell extracts (half-life of decomposition): CEM-SS cell extracts, 0.1 mM
WT HBV = assay type: cell-based

| SMILES | Minimum cytotoxic concentration (HEL cell cultures) [µM] | Stability in all tested media [1] | t1/2 cell extracts (half-life of decomposition) [2] | Potency relative to PMEA (more potent) (WT HBV) | Degradation in complete culture medium after 24 h ([2]; complete culture medium, 24 h) [%] |
| --- | --- | --- | --- | --- | --- |
| Nc1ncnc2c1ncn2CCOCP(=O)(O)O [PMEA, 9-(2-Phosphonomethoxyethyl)adenine, reference compound] | >200 | stable |  |  |  |
| C[C@H](Cn1cnc2c(N)ncnc21)OCP(=O)(O)O [PMPA, (R)-9-(2-Phosphonomethoxypropyl)-adenine, reference compound] | >200 | stable |  |  |  |
| Nc1ncnc2c1ncn2CCOCP(=O)([O-])[S-].[Na+].[Na+] (stereo not shown) [S-PMEA 3, {[2-(6-Amino-9H-purin-9-yl)ethoxy]methyl}phosphonothioic acid] | >200 |  | Stable ^c | 1.5–2.5 fold |  |
| C[C@H](Cn1cnc2c(N)ncnc21)OCP(=O)([O-])[S-].[Na+].[Na+] (stereo partly drawn) [S-PMPA 4, ({[(2R)-1-(6-Amino-9H-purin-9-yl)propan-2-yl]oxy}methyl)phosphonothioic acid] | >200 |  | Stable ^c |  | 20 |
